The record followed here is the NIST ThermoML archive (doi:10.1021/je049540s).

For data set [1] the following is noted: 308.15 K; 101.3 kPa; Liquid.
A short description of data set [2]: refractive index (Na D-line) (dimensionless). The conditions noted are these: 101.33 kPa, Liquid, Standard Abbe refractometry.

Numbers after ± are expanded uncertainties.

For orientation: mass density means mass per unit of volume. What is called refractive index is the speed of light in vacuum divided by its phase velocity in the sample. Consider `Cc1ccccc1O` [2-methylphenol], for which the mass density in data set [1] worked out at 1032.73 ± 0.49 kg/m3. The refractive index in data set [2] (308.15 K) is reported as 1.5386 ± 0.0007.
`Cc1cccc(O)c1` [3-methylphenol]: the mass density in data set [1] came out at 1022.02 ± 0.13 kg/m3. For the same compound, the refractive index in data set [2] (293.15 K) stood at 1.5401 ± 0.0007.
With `CCCCCCCCCC` [decane], in data set [1], the mass density is recorded as 720.24 ± 0.42 kg/m3. The refractive index in data set [2] (308.15 K) is on record as 1.4055 ± 0.0007.
Consider `CCCCCCCCCCCC` [dodecane], for which, in data set [1], the mass density turned out to be 738.63 ± 0.36 kg/m3. The refractive index in data set [2] (293.15 K) is given as 1.421 ± 0.0007.
In the case of `CCCCCCCCC` [nonane], the mass density in data set [1] is on record as 707.41 ± 0.38 kg/m3. In addition, the refractive index in data set [2] (293.15 K) came to 1.4058 ± 0.0007.
As to `CCCCCCCCCCC` [undecane], in data set [1], the mass density turned out to be 729.13 ± 0.36 kg/m3. Further, the refractive index in data set [2] (293.15 K) worked out at 1.4164 ± 0.0007.
